Data as given in US20150105252A1, “SUBSTITUTED PYRAZOLES AS HERBICIDES” (E I DU PONT DE NEMOURS AND COMPANY, priority 2013, published 2015).

Tests used:
[1] = system: wheat; test: Test A preemergence; assay type: in vivo, Triticum aestivum; conditions: preemergence
Summary of the method: (§1)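 Seeds were sown in a loam soil–sand blend and given a directed soil spray preemergence; postemergence plants at 2–10 cm, one- to two-leaf stage, were sprayed with compound in non-phytotoxic solvent with surfactant. After about 10 days in a greenhouse, injury was visually rated against untreated controls (0 = no effect, 100 = complete control).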

[2] = system: barnyardgrass; test: Test A preemergence; assay type: in vivo, Echinochloa crus-galli; conditions: preemergence
Summary of the method: as §1

[3] = system: corn; test: Test A postemergence; assay type: in vivo, Zea mays
Summary of the method: as §1

[4] = system: pigweed; test: Test A preemergence; assay type: in vivo, Amaranthus retroflexus; conditions: preemergence
Summary of the method: as §1

[5] = system: foxtail, giant; test: Test A postemergence; assay type: in vivo, Setaria faberii
Summary of the method: as §1

[6] = system: wheat; test: Test A postemergence; assay type: in vivo, Triticum aestivum
Summary of the method: as §1

[7] = system: pigweed; test: Test A postemergence; assay type: in vivo, Amaranthus retroflexus
Summary of the method: as §1

[8] = system: velvetleaf; test: Test A preemergence; assay type: in vivo, Abutilon theophrasti; conditions: preemergence
Summary of the method: as §1

[9] = system: ducksalad; test: Test B flood; assay type: in vivo, Heteranthera limosa; conditions: 250 g ai/ha, visual rating on 0 to 100 scale (0 no effect, 100 complete control), 13 to 15 days
Summary of the method: (§2)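 Two-leaf-stage plants, pots flooded (3 cm above soil) and treated through the water, which stayed at that depth. After 13–15 days in greenhouse conditions, visual assessment versus controls: 0 is no effect, 100 complete control, dash means no result.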

[10] = system: rice; test: Test B flood; assay type: in vivo, Oryza sativa; conditions: 250 g ai/ha, visual rating on 0 to 100 scale (0 no effect, 100 complete control), 13 to 15 days
Summary of the method: as §2

[11] = system: crabgrass, large; test: Test A postemergence; assay type: in vivo, Digitaria sanguinalis
Summary of the method: as §1

[12] = system: sedge, umbrella; test: Test B flood; assay type: in vivo, Cyperus difformis; conditions: 250 g ai/ha, visual rating on 0 to 100 scale (0 no effect, 100 complete control), 13 to 15 days
Description: Seeds selected from rice (Oryza sativa), sedge, umbrella (small-flower umbrella sedge Cyperus difformis), ducksalad (Heteranthera limosa), and barnyardgrass (Echinochloa crus-galli) were grown to the 2-leaf stage for testing. At time of treatment, test pots were flooded to 3 cm above the soil surface, treated by application of test compounds directly to the paddy water, and then maintained at that water depth for the duration of the test.
Treated plants and controls were maintained in a greenhouse for 13 to 15 days, after which time all species were compared to controls and visually evaluated. Plant response ratings, summarized in Table B, are based on a scale of 0 to 100 where 0 is no effect and 100 is complete control. A dash (-) response means no test result.

[13] = system: crabgrass, large; test: Test A preemergence; assay type: in vivo, Digitaria sanguinalis; conditions: preemergence
Summary of the method: as §1

[14] = system: velvetleaf; test: Test A postemergence; assay type: in vivo, Abutilon theophrasti
Summary of the method: as §1

[15] = system: morningglory; test: Test A postemergence; assay type: in vivo, Ipomoea spp.
Summary of the method: as §1

[16] = system: barnyardgrass; test: Test A postemergence; assay type: in vivo, Echinochloa crus-galli
Summary of the method: as §1

[17] = system: foxtail, giant; test: Test A preemergence; assay type: in vivo, Setaria faberii; conditions: preemergence
Summary of the method: as §1

[18] = system: barnyardgrass; test: Test B flood; assay type: in vivo, Echinochloa crus-galli; conditions: 250 g ai/ha, visual rating on 0 to 100 scale (0 no effect, 100 complete control), 13 to 15 days
Summary of the method: as §2

[19] = system: corn; test: Test A preemergence; assay type: in vivo, Zea mays; conditions: preemergence
Summary of the method: as §1

[20] = system: morningglory; test: Test A preemergence; assay type: in vivo, Ipomoea spp.; conditions: preemergence
Summary of the method: as §1

[21] = 125 g ai/ha, visual injury, 0 to 100 scale, approx. 10 days
[22] = 500 g ai/ha, visual injury after approx. 10 days, 0 to 100 scale (0 no effect, 100 complete control)
[23] = Postemergence, 500 g ai/ha, visual rating after approx. 10 days, 0 to 100 scale (0 no effect, 100 complete control)
[24] = postemergence, 125 g ai/ha, about 10 days, visual rating on 0 to 100 scale (0 no effect, 100 complete control)
[25] = Postemergence, 125 g ai/ha, 0 to 100 scale, 0 no effect, 100 complete control

Compound	Wheat plant response rating [1, 21]	Wheat plant response rating [1, 22]	Barnyardgrass plant response rating [2, 21]	Barnyardgrass plant response rating [2, 22]	Corn plant response rating [3, 23]	Corn plant response rating [3, 24]	Pigweed plant response rating [4, 21]	Pigweed plant response rating [4, 22]	Foxtail, Giant plant response rating [5, 23]	Foxtail, Giant plant response rating [5, 24]	Wheat plant response rating [6, 23]	Wheat plant response rating [6, 24]	Pigweed plant response rating [7, 23]	Pigweed plant response rating [7, 24]	Velvetleaf plant response rating [8, 21]	Velvetleaf plant response rating [8, 22]	Plant response rating, Ducksalad [9]	Plant response rating, Rice [10]	Crabgrass, Large plant response rating [11, 23]	Crabgrass, Large plant response rating [11, 24]	also measured
CCc1cc(C(=O)Nc2ccc(F)cc2)nn1Oc1ccnc(C(F)(F)F)c1 [Compound 89]	0	0	0	0	20	0	0	0	0	0	0	0	0	0	0	0	0	0	0	0	Plant response rating, Sedge, Umbrella [12]: 0; Crabgrass, Large plant response rating [13, 21]: 0; Crabgrass, Large plant response rating [13, 22]: 10; Velvetleaf plant response rating [14, 23]: 0; Velvetleaf plant response rating [14, 24]: 0; Morningglory plant response rating [15, 23]: 0; Morningglory plant response rating [15, 24]: 0; Barnyardgrass plant response rating [16, 25]: 0; Barnyardgrass plant response rating [16, 23]: 0; Foxtail, Giant plant response rating [17, 21]: 0; Foxtail, Giant plant response rating [17, 22]: 10; Plant response rating, Barnyardgrass [18]: 0; Corn plant response rating [19, 21]: 0; Corn plant response rating [19, 22]: 0; Morningglory plant response rating [20, 21]: 0; Morningglory plant response rating [20, 22]: 0
Cc1cc(C(=O)Nc2ccc(F)cc2)nn1Oc1ccnc(C(F)(F)F)c1 [Compound 90]	0	10	0	0	30	0	0	10	0	0	0	0	0	0	0	0	0	0	0	0	Plant response rating, Sedge, Umbrella [12]: 0; Crabgrass, Large plant response rating [13, 21]: 0; Crabgrass, Large plant response rating [13, 22]: 20; Velvetleaf plant response rating [14, 23]: 0; Velvetleaf plant response rating [14, 24]: 0; Morningglory plant response rating [15, 23]: 10; Morningglory plant response rating [15, 24]: 0; Barnyardgrass plant response rating [16, 25]: 0; Barnyardgrass plant response rating [16, 23]: 0; Foxtail, Giant plant response rating [17, 21]: 0; Foxtail, Giant plant response rating [17, 22]: 10; Plant response rating, Barnyardgrass [18]: 0; Corn plant response rating [19, 21]: 0; Corn plant response rating [19, 22]: 40; Morningglory plant response rating [20, 21]: 0; Morningglory plant response rating [20, 22]: 10
CCc1cc(C(=O)NC2CC2)nn1Cc1cccc(C(F)(F)F)n1 [Compound 91]	0	0	0	0	10	0	0	40	10	0	0	0	40	20	0	0	0	0	10	0	Plant response rating, Sedge, Umbrella [12]: 0; Crabgrass, Large plant response rating [13, 21]: 0; Crabgrass, Large plant response rating [13, 22]: 20; Velvetleaf plant response rating [14, 23]: 10; Velvetleaf plant response rating [14, 24]: 10; Morningglory plant response rating [15, 23]: 20; Morningglory plant response rating [15, 24]: 10; Barnyardgrass plant response rating [16, 25]: 0; Barnyardgrass plant response rating [16, 23]: 10; Foxtail, Giant plant response rating [17, 21]: 0; Foxtail, Giant plant response rating [17, 22]: 0; Plant response rating, Barnyardgrass [18]: 0; Corn plant response rating [19, 21]: 0; Corn plant response rating [19, 22]: 0; Morningglory plant response rating [20, 21]: 0; Morningglory plant response rating [20, 22]: 0
CCCc1cc(C(=O)Nc2ccc(F)cc2)nn1Oc1ccnc(C(F)(F)F)c1 [Compound 94]	0	0	0	0	0	0	0	0	0	0	0	0	0	0	0	0	0	0	0	0	Plant response rating, Sedge, Umbrella [12]: 0; Crabgrass, Large plant response rating [13, 21]: 0; Crabgrass, Large plant response rating [13, 22]: 0; Velvetleaf plant response rating [14, 23]: 0; Velvetleaf plant response rating [14, 24]: 0; Morningglory plant response rating [15, 23]: 0; Morningglory plant response rating [15, 24]: 0; Barnyardgrass plant response rating [16, 25]: 0; Barnyardgrass plant response rating [16, 23]: 0; Foxtail, Giant plant response rating [17, 21]: 0; Foxtail, Giant plant response rating [17, 22]: 0; Plant response rating, Barnyardgrass [18]: 0; Corn plant response rating [19, 21]: 0; Corn plant response rating [19, 22]: 0; Morningglory plant response rating [20, 21]: 0; Morningglory plant response rating [20, 22]: 0
CCc1cc(C(=O)NCC(F)(F)C(F)(F)F)nn1Cc1ccnc(C(F)(F)F)c1 [Compound 102]	0	40	20	90	50	30	90	90	90	50	30	0	80	50	0	100	50	0	80	50	Plant response rating, Sedge, Umbrella [12]: 50; Crabgrass, Large plant response rating [13, 21]: 60; Crabgrass, Large plant response rating [13, 22]: 100; Velvetleaf plant response rating [14, 23]: 50; Velvetleaf plant response rating [14, 24]: 10; Morningglory plant response rating [15, 23]: 60; Morningglory plant response rating [15, 24]: 40; Barnyardgrass plant response rating [16, 23]: 60; Barnyardgrass plant response rating [16, 24]: 20; Foxtail, Giant plant response rating [17, 21]: 90; Foxtail, Giant plant response rating [17, 22]: 100; Plant response rating, Barnyardgrass [18]: 0; Corn plant response rating [19, 21]: 10; Corn plant response rating [19, 22]: 60; Morningglory plant response rating [20, 21]: 10; Morningglory plant response rating [20, 22]: 50
